Patent US11739098B2 (BRISTOL-MYERS SQUIBB COMPANY, priority 2017, dated 2023)

Columns and labels:
Format in all cases: cell-based
[1] = biological target: T1, human TLR7 (Homo sapiens, UniProt Q9NYK1); assay: TLR7 inhibition reporter assay (HEK-Blue cells, SEAP reporter, gardiquimod stimulation); conditions: HEK-Blue cells overexpressing human TLR7, SEAP reporter, gardiquimod 7.5 μM
T1 construct: host or cells: HEK-Blue cells (HEK293-derived reporter line)
T1 sequence (Q9NYK1 27-1049): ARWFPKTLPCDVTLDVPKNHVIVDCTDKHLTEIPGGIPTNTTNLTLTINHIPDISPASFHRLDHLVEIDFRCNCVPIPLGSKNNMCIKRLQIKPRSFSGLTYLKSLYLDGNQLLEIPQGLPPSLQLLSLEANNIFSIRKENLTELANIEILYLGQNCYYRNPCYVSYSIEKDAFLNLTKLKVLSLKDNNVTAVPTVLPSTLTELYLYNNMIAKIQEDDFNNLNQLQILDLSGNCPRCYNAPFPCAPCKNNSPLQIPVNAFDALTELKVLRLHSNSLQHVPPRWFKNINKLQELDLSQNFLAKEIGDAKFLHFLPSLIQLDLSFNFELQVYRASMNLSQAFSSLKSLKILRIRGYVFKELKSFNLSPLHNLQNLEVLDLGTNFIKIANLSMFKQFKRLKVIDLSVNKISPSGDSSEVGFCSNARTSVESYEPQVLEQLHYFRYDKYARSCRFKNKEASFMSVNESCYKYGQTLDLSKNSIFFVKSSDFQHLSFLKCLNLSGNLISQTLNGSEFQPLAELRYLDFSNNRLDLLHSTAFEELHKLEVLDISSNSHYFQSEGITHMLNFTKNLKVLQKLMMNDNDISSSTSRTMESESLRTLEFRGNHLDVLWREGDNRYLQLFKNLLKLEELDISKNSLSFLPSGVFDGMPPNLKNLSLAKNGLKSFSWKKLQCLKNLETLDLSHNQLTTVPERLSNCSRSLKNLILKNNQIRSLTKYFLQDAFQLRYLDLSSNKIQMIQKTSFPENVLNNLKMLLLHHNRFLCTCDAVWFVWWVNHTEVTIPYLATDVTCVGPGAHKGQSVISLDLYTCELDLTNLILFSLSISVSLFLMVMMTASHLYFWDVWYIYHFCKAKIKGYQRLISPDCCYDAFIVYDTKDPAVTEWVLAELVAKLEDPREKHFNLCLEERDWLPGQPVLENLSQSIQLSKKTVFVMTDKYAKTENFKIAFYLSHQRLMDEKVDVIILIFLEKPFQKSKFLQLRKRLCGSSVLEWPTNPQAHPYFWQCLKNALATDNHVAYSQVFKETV
Outline: (§1)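 Agonists (final): TLR7 gardiquimod 7.5 μM; TLR8 R848 15.9 μM; TLR9 ODN2006 5 nM. HEK-Blue reporter cells, 30 min RT compound pre-incubation, 0.05 nM–50 μM dose range, 22 h at 37 °C, colorimetric SEAP detection medium. % inhibition relative to agonist+DMSO and known-inhibitor wells.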

[2] = biological target: T2, human TLR8 (Homo sapiens, UniProt Q9NR97); assay: TLR8 inhibition reporter assay (HEK-Blue cells, SEAP reporter, R848 stimulation); conditions: HEK-Blue cells overexpressing human TLR8, SEAP reporter, R848 15.9 μM
T2 construct: host or cells: HEK-Blue cells (HEK293-derived reporter line)
T2 sequence (Q9NR97 27-1041): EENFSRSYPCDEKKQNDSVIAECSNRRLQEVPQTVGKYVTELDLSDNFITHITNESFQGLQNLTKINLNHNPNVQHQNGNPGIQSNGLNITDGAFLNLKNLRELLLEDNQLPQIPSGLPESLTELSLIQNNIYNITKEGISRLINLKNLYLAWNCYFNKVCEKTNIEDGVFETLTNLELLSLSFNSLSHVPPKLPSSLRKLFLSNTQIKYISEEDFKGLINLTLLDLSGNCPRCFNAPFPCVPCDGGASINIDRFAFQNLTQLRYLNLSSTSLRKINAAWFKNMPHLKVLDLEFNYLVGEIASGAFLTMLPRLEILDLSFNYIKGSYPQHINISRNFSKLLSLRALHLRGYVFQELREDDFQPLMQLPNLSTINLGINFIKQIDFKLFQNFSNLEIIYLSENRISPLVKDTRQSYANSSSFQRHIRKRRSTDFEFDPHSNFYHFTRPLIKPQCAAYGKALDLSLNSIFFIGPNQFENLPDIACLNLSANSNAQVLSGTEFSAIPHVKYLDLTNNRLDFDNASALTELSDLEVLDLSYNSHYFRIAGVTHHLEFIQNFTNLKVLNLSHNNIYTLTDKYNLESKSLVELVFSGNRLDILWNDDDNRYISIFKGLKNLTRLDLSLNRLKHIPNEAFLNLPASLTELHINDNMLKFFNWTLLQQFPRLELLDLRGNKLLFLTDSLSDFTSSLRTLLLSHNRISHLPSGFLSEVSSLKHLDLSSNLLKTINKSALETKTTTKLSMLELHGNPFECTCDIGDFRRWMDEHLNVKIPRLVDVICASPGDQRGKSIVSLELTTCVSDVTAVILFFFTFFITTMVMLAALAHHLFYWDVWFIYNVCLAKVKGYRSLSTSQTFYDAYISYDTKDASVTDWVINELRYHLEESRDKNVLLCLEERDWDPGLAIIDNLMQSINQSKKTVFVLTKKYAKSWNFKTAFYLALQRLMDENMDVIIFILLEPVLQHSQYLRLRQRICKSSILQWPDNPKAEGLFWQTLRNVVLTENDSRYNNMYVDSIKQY
Outline: as §1

[3] = biological target: T3, human TLR9 (Homo sapiens, UniProt Q9NR96); assay: TLR9 inhibition reporter assay (HEK-Blue cells, SEAP reporter, ODN2006 stimulation); conditions: HEK-Blue cells overexpressing human TLR9, SEAP reporter, ODN2006 5 nM
T3 construct: host or cells: HEK-Blue cells (HEK293-derived reporter line)
T3 sequence (Q9NR96 26-1032): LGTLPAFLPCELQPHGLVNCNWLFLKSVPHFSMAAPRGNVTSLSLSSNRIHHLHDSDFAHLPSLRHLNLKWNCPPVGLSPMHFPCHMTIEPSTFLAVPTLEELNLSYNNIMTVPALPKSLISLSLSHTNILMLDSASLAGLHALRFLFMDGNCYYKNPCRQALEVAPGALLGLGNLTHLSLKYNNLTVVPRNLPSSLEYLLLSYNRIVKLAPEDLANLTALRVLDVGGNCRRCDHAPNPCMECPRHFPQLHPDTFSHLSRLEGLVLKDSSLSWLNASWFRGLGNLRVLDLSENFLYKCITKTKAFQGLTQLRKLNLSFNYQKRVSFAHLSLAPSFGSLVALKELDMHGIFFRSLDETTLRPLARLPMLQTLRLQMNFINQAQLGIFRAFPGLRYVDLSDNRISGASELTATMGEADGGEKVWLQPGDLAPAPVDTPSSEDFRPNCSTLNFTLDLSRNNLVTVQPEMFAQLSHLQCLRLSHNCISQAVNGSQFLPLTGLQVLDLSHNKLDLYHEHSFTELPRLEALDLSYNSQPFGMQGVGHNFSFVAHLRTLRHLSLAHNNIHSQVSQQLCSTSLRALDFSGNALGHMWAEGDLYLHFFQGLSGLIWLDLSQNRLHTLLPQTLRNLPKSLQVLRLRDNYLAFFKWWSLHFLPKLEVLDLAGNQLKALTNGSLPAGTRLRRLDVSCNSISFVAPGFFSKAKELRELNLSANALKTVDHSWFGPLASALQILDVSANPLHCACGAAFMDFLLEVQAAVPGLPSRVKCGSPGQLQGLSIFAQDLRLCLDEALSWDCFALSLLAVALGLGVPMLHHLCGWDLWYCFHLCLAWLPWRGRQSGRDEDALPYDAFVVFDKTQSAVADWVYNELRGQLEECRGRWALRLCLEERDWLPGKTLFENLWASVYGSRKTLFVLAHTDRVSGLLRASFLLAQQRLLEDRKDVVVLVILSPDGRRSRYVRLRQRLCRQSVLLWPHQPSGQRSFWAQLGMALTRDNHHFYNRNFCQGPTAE
Outline: as §1

Structure (SMILES)	IC50 [1]	IC50 [2]	IC50 [3]
CNCCN1CCC(c2ccc3[nH]c(-c4ccnc5[nH]ncc45)c(C(C)C)c3c2)C(F)C1 (stereo not drawn) [Example 678, 2-(3-fluoro-4-(3-isopropyl-2-(1H-pyrazolo[3,4-b]pyridin-4-yl)-1H-indol-5-yl)piperidin-1-yl)-N-methylethan-1-amine]	100 to 1000 nM	< 100 nM	1000 to 50000 nM
CNC(=O)CN1CCC(c2ccc3[nH]c(-c4ccnc5[nH]ncc45)c(CC(F)F)c3c2)CC1 [Example 387, 2-(4-(3-(2,2-difluoroethyl)-2-(1H-pyrazolo[3,4-b]pyridin-4-yl)-1H-indol-5-yl)piperidin-1-yl)-N-methylacetamide]	100 to 1000 nM	< 100 nM	1000 to 50000 nM
Cc1cc(-c2[nH]c3ccc(C4CCN(CC(=O)N(C)C)CC4)cc3c2C(C)C)cc2ocnc12 [Example 291, 2-(4-(3-isopropyl-2-(4-methylbenzo[d]oxazol-6-yl)-1H-indol-5-yl)piperidin-1-yl)-N,N-dimethylacetamide]	< 100 nM	< 100 nM	1000 to 50000 nM
Cc1c(-c2ncnc3[nH]ccc23)[nH]c2ccc(C3CCN(C4CCN(C(C)C)CC4)CC3)cc12 [Example 814, 4-(5-(1′-isopropyl-[1,4′-bipiperidin]-4-yl)-3-methyl-1H-indol-2-yl)-7H-pyrrolo[2,3-d]pyrimidine]	100 to 1000 nM	< 100 nM	< 100 nM
CC(=O)NCC(=O)N1CCC(c2ccc3[nH]c(-c4ccnc5[nH]ncc45)c(C(C)C)c3c2)CC1 [Example 567, N-(2-(4-(3-isopropyl-2-(1H-pyrazolo[3,4-b]pyridin-4-yl)-1H-indol-5-yl)piperidin-1-yl)-2-oxoethyl)acetamide]	< 100 nM	100 to 1000 nM	> 50000 nM
CCc1c(-c2ccnc3[nH]ncc23)[nH]c2ccc(C3CCN(Cc4cnc[nH]4)CC3)cc12 [Example 863, 4-(5-(1-((1H-imidazol-5-yl)methyl)piperidin-4-yl)-3-ethyl-1H-indol-2-yl)-1H-pyrazolo[3,4-b]pyridine]	100 to 1000 nM	< 100 nM	100 to 1000 nM
COCC(CO)N1CCC(c2ccc3[nH]c(-c4cc(C)n5ccnc5c4)c(C(C)C)c3c2)CC1 (stereo not drawn) [Example 754, 2-(4-(3-isopropyl-2-(5-methylimidazo[1,2-a]pyridin-7-yl)-1H-indol-5-yl)piperidin-1-yl)-3-methoxypropan-1-ol]	1000 to 50000 nM	100 to 1000 nM	100 to 1000 nM
Cc1cc(-c2[nH]c3ccc(C4CCN(C(=O)C5CC(=O)N(C)C5)CC4)cc3c2C(C)C)c2ccccc2n1 (stereo not drawn) [Example 638, 4-(4-(3-isopropyl-2-(2-methylquinolin-4-yl)-1H-indol-5-yl)piperidine-1-carbonyl)-1-methylpyrrolidin-2-one]	< 100 nM	100 to 1000 nM	> 50000 nM
CCc1c(-c2ccnc3[nH]ncc23)[nH]c2ccc(C3CCN(Cc4cncs4)CC3)cc12 [Example 928, 5-((4-(3-ethyl-2-(1H-pyrazolo[3,4-b]pyridin-4-yl)-1H-indol-5-yl)piperidin-1-yl)methyl)thiazole]	100 to 1000 nM	< 100 nM	1000 to 50000 nM
CC(=O)N1CCCN(CC(=O)N2CCC(c3ccc4[nH]c(-c5ccnc6[nH]ncc56)c(C(C)C)c4c3)CC2)CC1 [Example 586, 2-(4-acetyl-1,4-diazepan-1-yl)-1-(4-(3-isopropyl-2-(1H-pyrazolo[3,4-b]pyridin-4-yl)-1H-indol-5-yl)piperidin-1-yl)ethan-1-one]	< 100 nM	< 100 nM	1000 to 50000 nM
Cc1c(-c2ccnc3[nH]cc(C)c23)[nH]c2ccc(C3CCNCC3)cc12 [Example 4, 3-methyl-4-(3-methyl-5-(piperidin-4-yl)-1H-indol-2-yl)-1H-pyrrolo[2,3-b]pyridine]	100 to 1000 nM	100 to 1000 nM	100 to 1000 nM
Cc1cc(-c2[nH]c3ccc(C4CCNCC4)cc3c2C(C)C)cc2cccnc12 [Example 141, 6-(3-isopropyl-5-(piperidin-4-yl)-1H-indol-2-yl)-8-methylquinoline]	< 100 nM	< 100 nM	1000 to 50000 nM
CC(C)c1c(-c2ccnc3[nH]ncc23)[nH]c2ccc(C3CCN(C4CCCNCC4)CC3)cc12 (stereo not drawn) [Example 828, 4-(5-(1-(azepan-4-yl)piperidin-4-yl)-3-isopropyl-1H-indol-2-yl)-1H-pyrazolo[3,4-b]pyridine]	1000 to 50000 nM	< 100 nM	100 to 1000 nM
CCc1c(-c2cnnc3[nH]ccc23)[nH]c2ccc(C3CCNCC3)cc12 [Example 245, 4-(3-ethyl-5-(piperidin-4-yl)-1H-indol-2-yl)-7H-pyrrolo[2,3-c]pyridazine]	100 to 1000 nM	100 to 1000 nM	1000 to 50000 nM
CC(C)c1c(-c2cc(Cl)c3ncccc3c2)[nH]c2ccc(C3CCN(C(=O)CN(C)C)CC3)cc12 [Example 512, 1-(4-(2-(8-chloroquinolin-6-yl)-3-isopropyl-1H-indol-5-yl)piperidin-1-yl)-2-(dimethylamino)ethan-1-one]	< 100 nM	< 100 nM	1000 to 50000 nM
